For one test, the target named is T1, Kv1.3 potassium channel (Homo sapiens, UniProt P22001).
T1 construct: expressed in transfected cells
The experiment in a line: Kv1.3 potassium channel blocker activity, automated whole-cell patch clamp (Patchliner). It counts as cell-based. Conditions: CHO-K1 cells stably expressing Kv1.3; whole cell current inhibition; read-out: Kv1.3_IC50. The method, boiled down: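 CHO-K1 cells stably expressing Kv1.3, automated whole-cell patch clamp. Currents evoked by 100 ms steps from −90 mV holding to +40 mV at 0.1 Hz, sampled at 10 kHz unfiltered, P/4 leak subtraction; peak current inhibition measured, compound incubation ≤10 s between pulse trains.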
(In patch-clamp work, channel activity is measured electrically.)

In a further test the target is hERG channel (Homo sapiens, UniProt Q12809). Description: hERG electrophysiology, automated whole-cell patch clamp (Patchliner). (The hERG channel carries a current that helps repolarise heart muscle cells.)
hERG channel, sequence (Q12809 whole entry): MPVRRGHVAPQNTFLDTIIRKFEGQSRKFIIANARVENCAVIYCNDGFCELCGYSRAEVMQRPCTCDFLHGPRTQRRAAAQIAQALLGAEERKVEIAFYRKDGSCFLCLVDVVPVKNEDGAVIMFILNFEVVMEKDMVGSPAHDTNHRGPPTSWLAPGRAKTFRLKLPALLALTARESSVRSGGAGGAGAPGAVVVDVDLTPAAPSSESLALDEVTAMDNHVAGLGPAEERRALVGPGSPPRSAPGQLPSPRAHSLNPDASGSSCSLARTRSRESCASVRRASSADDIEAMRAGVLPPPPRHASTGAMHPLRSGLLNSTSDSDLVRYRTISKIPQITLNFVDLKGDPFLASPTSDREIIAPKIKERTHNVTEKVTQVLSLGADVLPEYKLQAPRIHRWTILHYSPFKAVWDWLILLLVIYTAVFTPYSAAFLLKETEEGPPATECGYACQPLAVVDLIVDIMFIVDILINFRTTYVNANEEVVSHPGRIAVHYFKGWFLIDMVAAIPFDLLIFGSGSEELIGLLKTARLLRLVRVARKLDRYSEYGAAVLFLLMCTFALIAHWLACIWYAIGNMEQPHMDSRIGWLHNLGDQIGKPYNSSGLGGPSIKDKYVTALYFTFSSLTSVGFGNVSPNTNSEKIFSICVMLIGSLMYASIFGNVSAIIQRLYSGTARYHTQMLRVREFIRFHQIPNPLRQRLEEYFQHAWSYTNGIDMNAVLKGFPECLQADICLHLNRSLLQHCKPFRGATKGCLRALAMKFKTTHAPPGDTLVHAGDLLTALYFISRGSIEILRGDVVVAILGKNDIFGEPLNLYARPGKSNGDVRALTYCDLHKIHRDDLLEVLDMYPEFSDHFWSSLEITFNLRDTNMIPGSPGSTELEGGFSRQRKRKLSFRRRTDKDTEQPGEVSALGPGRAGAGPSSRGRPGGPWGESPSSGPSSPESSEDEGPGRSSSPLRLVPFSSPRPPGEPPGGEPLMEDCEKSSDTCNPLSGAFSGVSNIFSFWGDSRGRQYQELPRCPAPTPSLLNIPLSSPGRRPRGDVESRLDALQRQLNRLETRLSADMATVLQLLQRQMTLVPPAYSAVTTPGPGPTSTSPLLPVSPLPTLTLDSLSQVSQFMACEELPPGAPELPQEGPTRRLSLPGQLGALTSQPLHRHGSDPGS

T1 sequence (P22001 whole entry): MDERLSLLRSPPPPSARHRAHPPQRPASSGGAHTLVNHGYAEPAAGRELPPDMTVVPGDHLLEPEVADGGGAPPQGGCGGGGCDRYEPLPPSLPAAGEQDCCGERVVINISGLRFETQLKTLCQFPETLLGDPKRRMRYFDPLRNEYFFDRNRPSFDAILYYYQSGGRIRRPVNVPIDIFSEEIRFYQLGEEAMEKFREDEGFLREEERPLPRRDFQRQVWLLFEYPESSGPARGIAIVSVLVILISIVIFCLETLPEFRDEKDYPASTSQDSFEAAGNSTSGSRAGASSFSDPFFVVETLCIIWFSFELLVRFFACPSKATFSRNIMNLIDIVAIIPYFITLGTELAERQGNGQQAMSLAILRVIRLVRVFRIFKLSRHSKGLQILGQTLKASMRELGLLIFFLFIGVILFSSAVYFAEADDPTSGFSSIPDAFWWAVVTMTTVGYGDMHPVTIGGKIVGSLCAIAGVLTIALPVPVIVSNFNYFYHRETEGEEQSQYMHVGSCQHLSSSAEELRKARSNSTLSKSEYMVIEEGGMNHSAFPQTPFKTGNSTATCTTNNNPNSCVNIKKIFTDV
Method for hERG channel: CHO-K1 cells stably expressing hERG were grown in Ham's F-12 Medium with Glutamine containing 10% heat-inactivated FBS, 1% Penicillin/Streptomycin, Hygromycin (100 μg/ml) and G418 (100 μg/ml). Cells were grown in culture flasks at 37° C. in a 5% CO2-humidified incubator.
The cells were bathed in an extracellular solution containing 140 mM NaCl, 4 mM KCl, 2 mM CaCl2), 1 mM MgCl2, 5 mM Glucose, 10 mM HEPES; pH adjusted to 7.4 with NaOH; 295-305 mOsm. The internal solution contained 50 mM KCl, 10 mM NaCl, 60 mM KF, 20 mM EGTA, 10 mM HEPES; pH adjusted to 7.2 with KOH; 285 mOsm. All compounds were dissolved in DMSO at 30 mM. Compound stock solutions were freshly diluted with external solution to concentrations of 30 nM, 100 nM, 300 nM, 1 μM, 3 μM, 10 μM, 30 μM and 100 μM. The highest content of DMSO (0.3%) was present in 100 μM.
The voltage protocol (see Table B) was designed to simulate voltage changes during a cardiac action potential with a 300 ms depolarization to +20 mV (analogous to the plateau phase of the cardiac action potential), a repolarization for 300 ms to −50 mV (inducing a tail current) and a final step to the holding potential of −80 mV. The pulse frequency was 0.3 Hz. Control (compound-free) and compound pulse trains for each compound concentration applied contained 70 pulses.
Whole cell current recordings and compound application were enabled by means of an automated patch clamp platform Patchliner (Nanion). EPC 10 patch clamp amplifier (HEKA) along with Patchmaster software (HEKA Elektronik Dr. Schulze GmbH) was used for data acquisition. Data were sampled at 10 kHz without filtering. Increasing compound concentrations were applied consecutively to the same cell without washouts in between.
AUC and PEAK values were obtained with Patchmaster (HEKA Elektronik Dr. Schulze GmbH). To determine IC50 the last single pulse in the pulse train corresponding to a given compound concentration was used. Obtained AUC and PEAK values in the presence of compound were normalized to control values in the absence of compound. Using Origin (OridinLab), IC50 was derived from data fit to Hill equation: Icompound/Icontrol=(100−A)/(1+([compound]/IC50)nH)+A, where IC50 is the concentration at which current inhibition is half-maximal, [compound] is the applied compound concentration, A is the fraction of current that is not blocked and nH is the Hill coefficient.

`Nc1nnc(C(=O)N2CCC([C@@H](N)c3cc(Cl)c(Cl)cc3O)CC2)o1` [Compound 155, 2-[(R)-amino[1-(5-amino-1,3,4-oxadiazole-2-carbonyl)piperidin-4-yl]methyl]-4,5-dichlorophenol trifluoroacetic acid]: the IC50 at Kv1.3 potassium channel was less than 10 µM; on hERG channel it was greater than 30 µM.
As for `N[C@@H](c1cc(Cl)c(Cl)cc1O)C1CCN(c2cn[nH]c2)CC1` [Compound 149, 2-[(R)-amino[1-(1H-pyrazol-4-yl)piperidin-4-yl]methyl]-4,5-dichlorophenol Trifluoroacetic Acid], the IC50 on Kv1.3 potassium channel was less than 10 µM; against hERG channel, less than 30 µM.
The like results for `Cc1cc(O)c([C@H](N)C2CCN(C(=O)c3cnc4nccn4c3)CC2)cc1Cl` [Compound 240, 2-[(R)-amino(1-[imidazo[1,2-a]pyrimidine-6-carbonyl]piperidin-4-yl)methyl]-4-chloro-5-methylphenol Trifluoroacetic Acid] were, in that order, less than 0.5 µM and greater than 30 µM.
Turning to `NC(=O)N1CCC([C@H](N)c2cc(Cl)c(Cl)cc2O)CC1` (single isomer, unassigned) [Compound 81], the IC50 on Kv1.3 potassium channel is less than 0.5 µM; at hERG channel, greater than 30 µM.
`C[C@H]1C[C@H]([C@@H](N)c2cc(Cl)c(Cl)cc2O)CCN1C(=O)[C@H](O)CO` [Compound 326, (2R)-1-[(2S,4R)-4-[(R)-amino(4,5-dichloro-2-hydroxyphenyl)methyl]-2-methylpiperidin-1-yl]-2,3-dihydroxypropan-1-one Trifluoroacetic Acid]: the IC50 on Kv1.3 potassium channel was less than 0.5 µM; against hERG channel, greater than 30 µM.
Regarding `C[C@H]1CN(C(=O)[C@H](O)CO)CC[C@H]1[C@@H](N)c1cc(Cl)c(Cl)cc1O` (single isomer, unassigned; isomer 2) [Compound 332], the IC50 on Kv1.3 potassium channel is less than 0.5 µM; against hERG channel, greater than 30 µM.
Turning to `N[C@H](c1c(O)cc(Cl)c(Cl)c1Cl)C1CCNCC1` (single isomer, unassigned) [Compound 60, Trifluoroacetic Acid], the IC50 was less than 30 µM at Kv1.3 potassium channel and greater than 30 µM on hERG channel.
On to `C[C@H](CO)C(=O)N1CCC([C@@H](N)c2cc(Cl)c(Cl)cc2O)CC1` [Compound 304, (2R)-1-[4-[(R)-amino(4,5-dichloro-2-hydroxyphenyl)methyl]piperidin-1-yl]-3-hydroxy-2-methylpropan-1-one], for which the IC50 on Kv1.3 potassium channel was less than 0.5 µM; against hERG channel it was greater than 30 µM.
In the case of `Oc1cc(Cl)c(Cl)cc1C(O)C1CCNCC1` (centres unmarked) [Compound 2, 4,5-dichloro-2-[hydroxy(piperidin-4-yl)methyl]phenol], the figures for the IC50 on Kv1.3 potassium channel and on hERG channel were less than 10 µM and greater than 30 µM, respectively.
Take `N[C@@H](c1cc(Cl)c(Cl)cc1O)C1CCN(C(=O)C2COCCO2)CC1` (stereo partly drawn) [Compound 137, 2-[(R)-amino[1-(1,4-dioxane-2-carbonyl)piperidin-4-yl]methyl]-4,5-dichlorophenol trifluoroacetic acid]: the IC50 at Kv1.3 potassium channel was less than 0.5 µM; at hERG channel, less than 30 µM.
As for `N[C@@H](c1cc(Cl)c(Cl)cc1O)C1CCN(C(=O)[C@H]2CNC(=O)C2)CC1` (single isomer, unassigned; isomer 2) [Compound 246], the figures for the IC50 on Kv1.3 potassium channel and against hERG channel were less than 0.5 µM and greater than 30 µM, respectively.
For `Cc1cc(O)c([C@H](N)C2CCN(C(=O)c3c[nH]c(=O)c(Cl)c3)CC2)c(F)c1Cl` [Compound 264, 5-[4-[(R)-amino(3-chloro-2-fluoro-6-hydroxy-4-methylphenyl)methyl]piperidine-1-carbonyl]-3-chloro-1H-pyridin-2-one Trifluoroacetic Acid], the results for the IC50 on Kv1.3 potassium channel and against hERG channel were less than 10 µM and greater than 30 µM, respectively.
For `N[C@@H](c1cc(Cl)c(Cl)cc1O)C1CCN(C(=O)c2cc(=O)[nH]cn2)CC1` [Compound 176, (R)-(4-(amino (4,5-dichloro-2-hydroxyphenyl)methyl)piperidin-1-yl)(6-hydroxy-pyrimidin-4-yl)methanone trifluoroacetic acid], the values for the IC50 on Kv1.3 potassium channel and on hERG channel were less than 10 µM and greater than 30 µM, respectively.
For `NCC(=O)N1CCC([C@@H](N)c2cc(Cl)c(Cl)cc2O)CC1` [Compound 92, 2-amino-1-[4-[(R)-amino(4,5-dichloro-2-hydroxyphenyl)methyl]piperidin-1-yl]ethan-1-one Trifluoroacetic Acid], the values for the concentration for half-maximal inhibition (IC50) on Kv1.3 potassium channel and on hERG channel were less than 0.5 µM and greater than 30 µM, respectively.
`NC(c1cc(Cl)c(Cl)cc1O)C1CCN(c2ncco2)CC1` (centres unmarked) [Compound 74, 2-[amino[1-(1,3-oxazol-2-yl)piperidin-4-yl]methyl]-4,5-dichlorophenol]: the values for the IC50 on Kv1.3 potassium channel and against hERG channel were less than 10 µM and less than 30 µM, respectively.
For `NC(c1cc(Cl)c(Cl)cc1O)C1CCN(C2CCOCC2)CC1` (centres unmarked) [Compound 44, 2-(amino(1-(tetrahydro-2H-pyran-4-yl)piperidin-4-yl)methyl)-4,5-dichlorophenol], the IC50 on Kv1.3 potassium channel is less than 10 µM; against hERG channel, less than 30 µM.
With `N[C@@H](c1cc(Cl)c(Cl)cc1O)C1CCN(S(=O)(=O)c2cn[nH]c2)CC1` [Compound 158, 2-[(R)-amino[1-(1H-pyrazole-4-sulfonyl)piperidin-4-yl]methyl]-4,5-dichlorophenol Trifluoroacetic Acid], the IC50 at Kv1.3 potassium channel is less than 10 µM; at hERG channel, less than 30 µM.
`N[C@@H](c1cc(Cl)c(Cl)cc1O)C1CCN(C(=O)C2CNC(=O)CO2)CC1` (stereo partly drawn) [Compound 231, 6-[4-[(R)-amino(4,5-dichloro-2-hydroxyphenyl)methyl]piperidine-1-carbonyl]morpholin-3-one]: the values for the IC50 on Kv1.3 potassium channel and against hERG channel were less than 0.5 µM and greater than 30 µM, respectively.
Consider `C[C@@H]1C[C@@H]([C@@H](N)c2cc(Cl)c(Cl)cc2O)CCN1C(=O)[C@H](O)CO` [Compound 327, (2R)-1-[(2R,4S)-4-[(R)-amino(4,5-dichloro-2-hydroxyphenyl)methyl]-2-methylpiperidin-1-yl]-2,3-dihydroxypropan-1-one Trifluoroacetic Acid], for which the IC50 on Kv1.3 potassium channel was less than 10 µM; against hERG channel it was greater than 30 µM.
For `N[C@@H](c1cc(Cl)c(Cl)cc1O)C1CCN(C(=O)C2(O)CC2)CC1` [Compound 140, 2-[(R)-amino[1-(1-hydroxycyclo-propanecarbonyl)piperidin-4-yl]methyl]-4,5-dichlorophenol trifluoroacetic acid] the same measures were less than 10 µM and less than 30 µM.
`N[C@@H](c1cc(Cl)c(C2CC2)cc1O)C1CCN(C(=O)[C@H](O)CO)CC1` [Compound 289, (2R)-1-[4-[(R)-amino(5-chloro-4-cyclopropyl-2-hydroxyphenyl)methyl]piperidin-1-yl]-2,3-dihydroxypropan-1-one]: the IC50 on Kv1.3 potassium channel was less than 0.5 µM; on hERG channel, greater than 30 µM.
The like results for `Cn1cc(C(=O)N2CCC([C@@H](N)c3cc(Cl)c(Cl)cc3O)CC2)ccc1=O` [Compound 232, 5-[4-[(R)-amino(4,5-dichloro-2-hydroxyphenyl)methyl]piperidine-1-carbonyl]-1-methylpyridin-2-one] were, in that order, less than 0.5 µM and greater than 30 µM.
For `CC(C)C(=O)N1CCC(C(N)c2cc(Cl)c(Cl)cc2O)CC1` (centres unmarked) [Compound 43, 1-[4-[amino(4,5-dichloro-2-hydroxyphenyl)methyl]piperidin-1-yl]-2-methylpropan-1-one Trifluoroacetic Acid] the same measures were less than 10 µM and less than 30 µM.
For the molecule `N[C@@H](c1cc(Cl)c(Cl)cc1O)[C@@H]1CCNC1` (single isomer, unassigned; diastereoisomer 2) [Compound 33, 2-(amino(pyrrolidin-3-yl)methyl)-4,5-dichlorophenol Trifluoroacetic Acid Diastereoisomer 2], the IC50 on Kv1.3 potassium channel was less than 10 µM; against hERG channel, greater than 30 µM.
As to `Cc1cc(O)c([C@H](N)C2CCN(C(=O)c3ccc(=O)n(C)c3)CC2)cc1Cl` [Compound 239, 5-[4-[(R)-amino (5-chloro-2-hydroxy-4-methylphenyl)methyl]piperidine-1-carbonyl]-1-methylpyridin-2(1H)-one trifluoroacetic acid], the figures for the IC50 at Kv1.3 potassium channel and against hERG channel were less than 0.5 µM and greater than 30 µM, respectively.
For the molecule `N[C@@H](c1cc(Cl)c(Cl)cc1O)C1CCN(C(=O)[C@@H]2CNC(=O)OC2)CC1` (single isomer, unassigned; isomer 2) [Compound 210], the IC50 is less than 0.5 µM at Kv1.3 potassium channel and greater than 30 µM at hERG channel.
For `O=S(=O)([C@H]1CCNC1)N1CCC([C@H](O)c2cc(Cl)c(Cl)cc2O)CC1` (single isomer, unassigned; isomer 3) [Compound 121, 4,5-dichloro-2-(hydroxy(1-(pyrrolidin-3-ylsulfonyl)piperidin-4-yl)methyl)phenol Isomer 3], the IC50 is less than 0.5 µM on Kv1.3 potassium channel and greater than 30 µM against hERG channel.
With `N[C@@H](c1c(O)ccc2ccccc12)C1CCN(C(=O)[C@H](O)CO)CC1` [Compound 191, (2R)-1-[4-[(R)-amino(2-hydroxynaphthalen-1-yl)methyl]piperidin-1-yl]-2,3-dihydroxypropan-1-one Trifluoroacetic Acid], the results for the IC50 on Kv1.3 potassium channel and against hERG channel were less than 10 µM and greater than 30 µM, respectively.
For the molecule `NC(c1cc(Cl)c(Cl)cc1O)C1CCN(C(=O)CO)CC1` (centres unmarked) [Compound 47, 1-[4-[amino(4,5-dichloro-2-hydroxyphenyl)methyl]piperidin-1-yl]-2-hydroxyethan-1-one], the results for the IC50 at Kv1.3 potassium channel and against hERG channel were less than 0.5 µM and greater than 30 µM, respectively.
The like results for `N[C@@H](c1cc(Cl)c(Cl)cc1O)C1CCN(C(=O)C2COCCN2)CC1` (stereo partly drawn) [Compound 144, 2-[(R)-amino[1-(morpholine-3-carbonyl)piperidin-4-yl]methyl]-4,5-dichlorophenol trifluoroacetic acid] were, in that order, less than 10 µM and greater than 30 µM.
On to `N[C@@H](c1cc(Cl)c(Cl)cc1O)C1CCN(C(=O)C(O)CO)CC1` (stereo partly drawn) [Compound 117, 1-(4-((R)-amino(4,5-dichloro-2-hydroxyphenyl)methyl)piperidin-1-yl)-2,3-dihydroxypropan-1-one], for which the IC50 was less than 0.5 µM on Kv1.3 potassium channel and greater than 30 µM on hERG channel.

One may read the IC50 as the concentration needed to halve the response being measured.
